Data on 22 compounds can be found in patent US9994555B2, “Chromenone inhibitors of monocarboxylate transporters” (THE SCRIPPS RESEARCH INSTITUTE, priority 2015, dated 2018).

For this experiment, the system named is Raji (Burkitt's) lymphoma cells. The experiment is described as follows: MTT assay for 4-day viability of Raji (Burkitt's) lymphoma cells. Particulars: Homo sapiens, 96 h, Raji (Burkitt's) lymphoma cells highly expressing MCT1, estimated EC50 given as bin, read-out: approximate potency (EC50). Format: cell-based. The source says:
Specific Examples of compounds of the invention, with estimated EC50 values determined using an MTT assay for 4-day viability of Raji (Burkitt's) lymphoma cells, a cell line known to highly express MCT1 and to be sensitive to small molecule MCT inhibitors,^4 are shown in Table 8. Assay protocols follow those described in the literature.^4 Other assays that are not described here but that are standard in the field, such as an assay for competitive inhibition of transport of radiolabeled lactic acid, an MCT substrate, may also be useful in establishing mechanism of action of these compounds.
What is called EC50 is the concentration giving half of the maximal effect. In the case of `O=c1cc(-c2ccccc2)oc2cc(OCc3cccc4ccccc34)cc(OCCCO)c12` [Example 28, 5-(3-hydroxypropoxy)-7-(naphthalen-1-ylmethoxy)-2-phenyl-4H-chromen-4-one], the EC50 is 1000 to 10000 nM.

As to `O=c1cc(-c2ccccc2)oc2cc(OCc3cccc4ccccc34)cc(OCCCCO)c12` [Example 29, 5-(4-hydroxybutoxy)-7-(naphthalen-1-ylmethoxy)-2-phenyl-4H-chromen-4-one], the half-maximal effective concentration (EC50) was 1000 to 10000 nM. On to `CC(C)c1cc(=O)c2c(OCCCCO)cc(OCc3ccnc4ccccc34)cc2o1` [Example 30, 5-(4-hydroxybutoxy)-2-isopropyl-7-(quinolin-4-ylmethoxy)-4H-chromen-4-one], for which the EC50 is at most 100 nM. As for `Cc1cc(=O)c2c(OCc3ccccc3CO)cc(Oc3ccnc4ccccc34)cc2o1` [Example 31, 5-((2-(hydroxymethyl)benzyl)oxy)-2-methyl-7-(quinolin-4-yloxy)-4H-chromen-4-one], the EC50 was 100 to 1000 nM. Next, `CC(C)c1cc(=O)c2c(OCc3ccccc3CO)cc(Oc3cc(C(F)(F)F)ccn3)cc2o1` [Example 32, 5-((2-(hydroxymethyl)benzyl)oxy)-2-isopropyl-7-((4-(trifluoromethyl)pyridin-2-yl)oxy)-4H-chromen-4-one]: 100 to 1000 nM; `CC(C)c1cc(=O)c2c(OCc3ccccc3CO)cc(OCc3cncnc3)cc2o1` [Example 33, 5-((2-(hydroxymethyl)benzyl)oxy)-2-isopropyl-7-(pyrimidin-5-ylmethoxy)-4H-chromen-4-one]: 100 to 1000 nM; `CC(C)c1cc(=O)c2c(OCCCCO)cc(COc3cccc4ccccc34)cc2o1` [Example 35, 5-(4-hydroxybutoxy)-2-isopropyl-7-((naphthalen-1-yloxy)methyl)-4H-chromen-4-one]: 1000 to 10000 nM.

As for `CC(C)c1cc(=O)c2c(CCCCO)cc(OCc3cccc4ccccc34)cc2o1` [Example 36, 5-(4-hydroxybutyl)-2-isopropyl-7-(naphthalen-1-ylmethoxy)-4H-chromen-4-one], the EC50 is 1000 to 10000 nM. Turning to `CC(C)c1cc(=O)c2c(CCCCCO)cc(OCc3cccc4ccccc34)cc2o1` [Example 37, 5-(5-hydroxypentyl)-2-isopropyl-7-(naphthalen-1-ylmethoxy)-4H-chromen-4-one], the EC50 was 1000 to 10000 nM. `CC(C)c1cc(=O)c2c(-c3cccc(CCO)c3)cc(OCc3cccc4ccccc34)cc2o1` [Example 38, 5-(3-(2-hydroxyethyl)phenyl)-2-isopropyl-7-(naphthalen-1-ylmethoxy)-4H-chromen-4-one]: the EC50 is 1000 to 10000 nM. For the compound `CC(C)c1cc(=O)c2c(-c3cc(CO)ccc3Cl)cc(OCc3cccc4ccccc34)cc2o1` [Example 39, 5-(2-chloro-5-(hydroxymethyl)phenyl)-2-isopropyl-7-(naphthalen-1-ylmethoxy)-4H-chromen-4-one], the EC50 was 1000 to 10000 nM. As to `CC(C)c1cc(=O)c2c(-c3cc(CO)ccc3F)cc(OCc3cccc4ccccc34)cc2o1` [Example 40, 5-(2-fluoro-5-(hydroxymethyl)phenyl)-2-isopropyl-7-(naphthalen-1-ylmethoxy)-4H-chromen-4-one], the EC50 is 1000 to 10000 nM. In the case of `CC(C)c1cc(=O)c2c(-c3cccc(CO)c3F)cc(OCc3cccc4ccccc34)cc2o1` [Example 41, 5-(2-fluoro-3-(hydroxymethyl)phenyl)-2-isopropyl-7-(naphthalen-1-ylmethoxy)-4H-chromen-4-one], the EC50 was at least 10000 nM. For `CC(C)c1cc(=O)c2c(-c3cccc(CO)c3)cc(Oc3ccnc4ccccc34)cc2o1` [Example 42, 5-(3-(hydroxymethyl)phenyl)-2-isopropyl-7-(quinolin-4-yloxy)-4H-chromen-4-one], the EC50 is 100 to 1000 nM. Next, `CC(C)c1cc(=O)c2c(-c3cccc(CO)c3)cc(OCc3cccc4ccccc34)cc2o1` [Example 43, 5-(3-(hydroxymethyl)phenyl)-2-isopropyl-7-(naphthalen-1-ylmethoxy)-4H-chromen-4-one]: 100 to 1000 nM. In the case of `CC(C)c1cc(=O)c2c(-c3ccccc3CO)cc(OCc3cccc4ccccc34)cc2o1` [Example 44], the EC50 was at least 10000 nM. With `CC(C)c1cc(=O)c2c(-c3ccc(CO)cc3)cc(OCc3cccc4ccccc34)cc2o1` [Example 45], the EC50 is 1000 to 10000 nM. Next, `CC(C)c1cc(=O)c2c(NCCCCO)cc(OCc3cccc4ccccc34)cc2o1` [Example 46, 5-((4-hydroxybutyl)amino)-2-isopropyl-7-(naphthalen-1-ylmethoxy)-4H-chromen-4-one]: 1000 to 10000 nM; `CC(C)c1cc(=O)c2c(NCCCCCO)cc(OCc3cccc4ccccc34)cc2o1` [Example 47, 5-((5-hydroxypentyl)amino)-2-isopropyl-7-(naphthalen-1-ylmethoxy)-4H-chromen-4-one]: at least 10000 nM. Consider `CC(C)c1cc(=O)c2c(NCCCO)cc(OCc3cccc4ccccc34)cc2o1` [Example 48, 5-((3-hydroxypropyl)amino)-2-isopropyl-7-(naphthalen-1-ylmethoxy)-4H-chromen-4-one], for which the EC50 is 1000 to 10000 nM.

As to `CC(C)c1cc(=O)c2c(Nc3cccc(CO)c3)cc(OCc3cccc4ccccc34)cc2o1` [Example 49, 5-((3-(hydroxymethyl)phenyl)amino)-2-isopropyl-7-(naphthalen-1-ylmethoxy)-4H-chromen-4-one], the EC50 is at least 10000 nM. With `CC(C)c1cc(=O)c2c(N3CCC(CO)CC3)cc(OCc3cccc4ccccc34)cc2o1` [Example 50, 5-(4-(hydroxymethyl)piperidin-1-yl)-2-isopropyl-7-(naphthalen-1-ylmethoxy)-4H-chromen-4-one], the EC50 was 1000 to 10000 nM.
